This is an account of results in patent US7067658B2, “Pyridino and pyrimidino pyrazinones” (Bristol-Myers Squibb Company, priority 2002, dated 2006).

This assay has as its target T1, cloned human CRF1 receptors (Homo sapiens, UniProt P34998).
T1 construct: the coding region is amplified by PCR from start to stop codons; expressed in transfected cells; host or cells: 293EBNA cells (episomal vector phchCRFR, hygromycin selection); membrane homogenate
T1 sequence (P34998 24-415): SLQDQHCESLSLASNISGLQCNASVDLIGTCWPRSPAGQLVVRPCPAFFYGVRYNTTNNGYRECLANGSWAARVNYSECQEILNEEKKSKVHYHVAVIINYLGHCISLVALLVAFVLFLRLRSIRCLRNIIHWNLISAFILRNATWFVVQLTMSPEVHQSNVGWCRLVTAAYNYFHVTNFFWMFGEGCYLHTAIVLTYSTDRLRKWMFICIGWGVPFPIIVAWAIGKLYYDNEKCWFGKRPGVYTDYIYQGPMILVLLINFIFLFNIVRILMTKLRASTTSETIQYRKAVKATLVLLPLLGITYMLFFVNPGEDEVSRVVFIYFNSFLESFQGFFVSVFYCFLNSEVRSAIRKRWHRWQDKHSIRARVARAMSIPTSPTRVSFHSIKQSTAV
In words: CRF1 receptor binding assay (inhibition of 125I-ovine-CRF binding to membranes of 293EBNA cells transfected with hCRFR1). The text has this: Provided herein is an example of a CRF1 receptor binding assay that can be used for the evaluation of biological activity of compounds of the present invention. The example also includes isolation of cell membranes containing cloned human CRF1 receptors for use in the binding assay.
Messenger RNA is isolated from human hippocampus by standard techniques. The mRNA is reverse transcribed using oligo (dt) 12–18 and the coding region is amplified by PCR from start to stop codons The resulting PCR fragment is cloned into the EcoRV site of pGEMV, from whence the insert is reclaimed using XhoI+XbaI and cloned into the XhoI+XbaI sites of vector pm3ar (which contains a CMV promoter, the SV40 ‘t’ splice and early poly A signals, an Epstein-Barr viral origin of replication, and a hygromycin selectable marker). […] Cells surviving 4 weeks of selection in hygromycin are pooled, adapted to growth in suspension, and used to generate membranes for the binding assay described below. Individual aliquots containing approximately 1×10^8 of the suspended cells are then centrifuged to form a pellet and frozen.
The homogenate is centrifuged at 40,000×g for 12 min and the resulting pellet rehomogenized in 10 mL of tissue buffer. After another centrifugation at 40,000×g for 12 min, the pellet is resuspended to a protein concentration of 360 μg/ml to be used in the assay.
Binding assays are performed in 96 well plates; each well having a 300 μL capacity. […] Plates are then allowed to incubate at room temperature for 2 hours before filtering the incubate over GF/F filters (presoaked with 0.3% polyethyleneimine) using an appropriate cell harvester. Filters are rinsed 2 times with ice cold assay buffer before removing individual filters and assessing them for radioactivity on a gamma counter.

Setting [1] is: IC50 ranges, class symbols a-e, read-out: IC50 Range* (potency of binding to CRF1 receptor).
[2] abbreviates: IC50 ranges as class symbols a-e, read-out: IC50 Range* (potency of binding to CRF1 receptor).

Read-outs that look alike come from different tables or passages of the source.

As for `COCC(C)n1c(=O)c(C)nc2c(-c3ccc(Cl)cc3Cl)ccnc21` (racemic) [Example 9, (R,S)-8-(2,4-dichloro-phenyl)-4-(2-methoxy-1-methyl-ethyl)-2-methyl-4H-pyrido[2,3-b]pyrazin-3-one], the IC50 under setting [1] fell in the range of 10 to 100 nM. Consider `CCCCC(CC)n1c(=O)c(C)nc2c(-c3ccc(OC)nc3C)ccnc21` (racemic) [Example 97, (R,S)-4-(1-ethyl-pentyl)-8-(6-methoxy-2-methyl-pyridin-3-yl)-2-methyl-4H-pyrido[2,3-b]pyrazin-3-one], for which the IC50 under setting [1] lay in the range of 100 to 1000 nM. As to `Cc1nc2c(-c3ccc(OC(F)(F)F)cc3Cl)ncnc2n(C(C)C2CC2)c1=O` (stereo not shown) [Example 1062, 4-(2-Chloro-4-trifluoromethoxy-phenyl)-8-(1-cyclopropyl-ethyl)-6-methyl-8H-pteridin-7-one], the IC50 (IC50 ranges as class symbols a-e, read-out: IC50 Range (potency of binding to CRF1 receptor)) was 100 to 1000 nM. For the compound `Cc1nc2c(-c3ccc(Cl)cc3Cl)ccnc2n(CC(C)C)c1=O` [Example 1, (R,S)-8-(2,4-dichloro-phenyl)-4-isobutyl-2-methyl-4H-pyrido[2,3-b]pyrazin-3-one], the IC50 under setting [1] is greater than 1000 nM.

On to `CCC(COC)n1c(=O)c(C)nc2c(-c3cc(Cl)c(OC)cc3C)ccnc21` (stereo not shown) [Example 459, 8-(5-Chloro-4-methoxy-2-methyl-phenyl)-4-(1-methoxymethyl-propyl)-2-methyl-4H-pyrido[2,3-b]pyrazin-3-one], for which the IC50 under setting [2] was 1 to 10 nM.

For `CCC(C1CCC1)n1c(=O)c(C)nc2c(-c3ccc(OC)cc3Cl)ccnc21` (stereo not shown) [compound 23], the IC50 under setting [1] is 1 to 10 nM. On the same count and under the same terms, the value for `CCCC(C1CC1)n1c(=O)c(C)nc2c(-c3ccc(OC(F)F)cc3Cl)ccnc21` (racemic) [Example 117, (R,S)-8-(2-Chloro-4-difluoromethoxy-phenyl)-4-(1-cyclopropyl-butyl)-2-methyl-4H-pyrido[2,3-b]pyrazin-3-one] was 1 to 10 nM. Same read-out and setting: the value for `CCCC(CCC)n1c(=O)c(C)nc2c(-c3ccc(OC)cc3Cl)ccnc21` [Example 18, (R,S)-8-(2-chloro-4-methoxy-phenyl)-2-methyl-4-(1-propyl-butyl)-4H-pyrido[2,3-b]pyrazin-3-one] was 1 to 10 nM. Consider `CCC(C1CC1)n1c(=O)c(C)nc2c(-c3cc(C)c(OC)cc3Cl)ccnc21` (stereo not shown) [Example 484, 8-(2-Chloro-4-methoxy-5-methyl-phenyl)-4-(1-cyclopropyl-propyl)-2-methyl-4H-pyrido[2,3-b]pyrazin-3-one], for which the IC50 under setting [2] was less than 1 nM. Turning to `CCC(COC)n1c(=O)c(C)nc2c(-c3ccc(Cl)cc3Cl)ccnc21` (racemic) [Example 10, (R,S)-8-(2,4-dichloro-phenyl)-4-(1-methoxymethyl-propyl)-2-methyl-4H-pyrido[2,3-b]pyrazin-3-one], under setting [1], the IC50 was in the range of 1 to 10 nM.

On to `COCC(C)n1c(=O)c(C)nc2c(-c3cc(F)c(N(C)C)cc3Cl)ccnc21` (stereo not shown) [Example 506, 8-(2-Chloro-4-dimethylamino-5-fluoro-phenyl)-4-(2-methoxy-1-methyl-ethyl)-2-methyl-4H-pyrido[2,3-b]pyrazin-3-one], for which, under setting [2], the IC50 was 1 to 10 nM. Regarding `CCCC(C1CC1)n1c(=O)c(C)nc2c(-c3ccc(OC)nc3C)ccnc21` (racemic) [Example 101, (R,S)-4-(1-cyclopropyl-butyl)-8-(6-methoxy-2-methyl-pyridin-3-yl)-2-methyl-4H-pyrido[2,3-b]pyrazin-3-one], the IC50 under setting [1] was in the range of 10 to 100 nM. Regarding `CCC(C1CC1)n1c(=O)c(C)nc2c(-c3cc(Cl)c(OC)cc3C)ccnc21` (stereo not shown) [Example 452, 8-(5-Chloro-4-methoxy-2-methyl-phenyl)-4-(1-cyclopropyl-propyl)-2-methyl-4H-pyrido[2,3-b]pyrazin-3-one], under setting [2], the IC50 is less than 1 nM. Consider `CCC(C)n1c(=O)c(C)nc2c(-c3ccc(OC(F)F)cc3Cl)ccnc21` (racemic) [Example 113, (R,S)-4-sec-butyl-8-(2-chloro-4-difluoromethoxy-phenyl)-2-methyl-4H-pyrido[2,3-b]pyrazin-3-one], for which, under setting [1], the IC50 lay in the range of 10 to 100 nM. Turning to `CCC(COC)n1c(=O)c(C)nc2c(-c3cc(F)c(N(C)C)cc3Cl)ccnc21` (stereo not shown) [Example 507, 8-(2-Chloro-4-dimethylamino-5-fluoro-phenyl)-4-(1-methoxymethyl-propyl)-2-methyl-4H-pyrido[2,3-b]pyrazin-3-one], the IC50 under setting [2] was less than 1 nM.

In the case of `COCC(C)n1c(=O)c(C)nc2c(-c3ccc(OC)cc3Cl)ccnc21` (stereo not shown) [compound 25], under setting [1], the IC50 lay within 10 to 100 nM. Turning to `CCC(C)n1c(=O)c(C)nc2c(-c3ccc(Cl)cc3Cl)ncnc21` (racemic) [Example 546, (R,S)-8-sec-Butyl-4-(2,4-dichloro-phenyl)-6-methyl-8H-pteridin-7-one], under setting [1], the half-inhibitory concentration (IC50) is 100 to 1000 nM. On the same count and under the same terms, in the case of `CCCC(CCC)n1c(=O)c(C)nc2c(-c3ccc(OC)cc3Cl)ncnc21` [Example 563, 4-(2-Chloro-4-methoxy-phenyl)-6-methyl-8-(1-propyl-butyl)-8H-pteridin-7-one] it was 1 to 10 nM; in that of `CCCC(C1CC1)n1c(=O)c(C)nc2c(-c3ccc(Cl)cc3Cl)ccnc21` (racemic) [Example 5, (R,S)-4-(1-cyclopropyl-butyl)-8-(2,4-dichloro-phenyl)-2-methyl-4H-pyrido[2,3-b]pyrazin-3-one], 1 to 10 nM. On the same count and under the same terms, the value for `CCCC(C1CC1)n1c(=O)c(C)nc2c(-c3ccc(OC)cc3C)ccnc21` (racemic) [Example 69, (R,S)-4-(1-cyclopropyl-butyl)-8-(4-methoxy-2-methyl-phenyl)-2-methyl-4H-pyrido[2,3-b]pyrazin-3-one] was 1 to 10 nM; that for `COCC(C)n1c(=O)c(C)nc2c(-c3ccc(OC)nc3C)ncnc21` (stereo not shown) [compound 650] was greater than 1000 nM; that for `CCCC(C)n1c(=O)c(C)nc2c(-c3ccc(Cl)cc3Cl)ccnc21` (racemic) [Example 2, (R,S)-8-(2,4-dichloro-phenyl)-2-methyl-4-(1-methyl-butyl)-4H-pyrido[2,3-b]pyrazin-3-one] was 10 to 100 nM. Turning to `CCC(COC)n1c(=O)c(C)nc2c(-c3cc(F)c(OC)cc3Cl)ccnc21` (stereo not shown) [Example 250, 8-(2-Chloro-5-fluoro-4-methoxy-phenyl)-4-(1-methoxymethyl-propyl)-2-methyl-4H-pyrido[2,3-b]pyrazin-3-one], where the note is “Potency of binding to CRF1 receptor, listed as IC50 ranges, read-out: IC50 Range*”, the IC50 lay within 1 to 10 nM. For the compound `CCC(COC)n1c(=O)c(C)nc2c(-c3cc(C)c(OC)cc3Cl)ccnc21` (stereo not shown) [Example 491, 8-(2-Chloro-4-methoxy-5-methyl-phenyl)-4-(1-methoxymethyl-propyl)-2-methyl-4H-pyrido[2,3-b]pyrazin-3-one], the IC50 under setting [2] is less than 1 nM. On the same count and under the same terms, in the case of `CCC(C1CC1)n1c(=O)c(C)nc2c(-c3cc(F)c(N(C)C)cc3Cl)ccnc21` (stereo not shown) [Example 500, 8-(2-Chloro-4-dimethylamino-5-fluoro-phenyl)-4-(1-cyclopropyl-propyl)-2-methyl-4H-pyrido[2,3-b]pyrazin-3-one] it was less than 1 nM.
